Laboratory results taken from ChEMBL document CHEMBL1126309, “Aliphatic propargylamines: potent, selective, irreversible monoamine oxidase B inhibitors” (J Med Chem, 1992).

Columns and labels:
[1] = target: T1, Amine oxidase [flavin-containing] B (Rattus norvegicus, UniProt P19643); test: Inhibition of Monoamine oxidase B of rat liver mitochondrial membranes; type: cell membranes, Membrane
T1 sequence (P19643 whole entry): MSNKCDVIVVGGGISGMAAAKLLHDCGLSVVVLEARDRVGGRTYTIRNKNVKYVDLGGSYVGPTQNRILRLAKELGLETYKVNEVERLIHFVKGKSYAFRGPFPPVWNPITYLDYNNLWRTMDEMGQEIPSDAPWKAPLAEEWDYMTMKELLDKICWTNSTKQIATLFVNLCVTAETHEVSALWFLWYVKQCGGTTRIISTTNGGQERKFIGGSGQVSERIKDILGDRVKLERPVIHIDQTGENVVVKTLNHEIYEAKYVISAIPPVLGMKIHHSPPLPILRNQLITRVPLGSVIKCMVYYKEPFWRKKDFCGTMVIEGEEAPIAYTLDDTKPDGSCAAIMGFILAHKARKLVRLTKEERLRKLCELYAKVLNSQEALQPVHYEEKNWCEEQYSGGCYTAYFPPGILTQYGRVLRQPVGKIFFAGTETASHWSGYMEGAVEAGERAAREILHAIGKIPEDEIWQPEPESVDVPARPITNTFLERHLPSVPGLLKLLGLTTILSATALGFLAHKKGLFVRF

[2] = target: T2, Amine oxidase [flavin-containing] A (Rattus norvegicus, UniProt P21396); test: Inhibition of Monoamine oxidase A of rat liver mitochondrial membranes; type: cell membranes, Membrane
T2 sequence (P21396 whole entry): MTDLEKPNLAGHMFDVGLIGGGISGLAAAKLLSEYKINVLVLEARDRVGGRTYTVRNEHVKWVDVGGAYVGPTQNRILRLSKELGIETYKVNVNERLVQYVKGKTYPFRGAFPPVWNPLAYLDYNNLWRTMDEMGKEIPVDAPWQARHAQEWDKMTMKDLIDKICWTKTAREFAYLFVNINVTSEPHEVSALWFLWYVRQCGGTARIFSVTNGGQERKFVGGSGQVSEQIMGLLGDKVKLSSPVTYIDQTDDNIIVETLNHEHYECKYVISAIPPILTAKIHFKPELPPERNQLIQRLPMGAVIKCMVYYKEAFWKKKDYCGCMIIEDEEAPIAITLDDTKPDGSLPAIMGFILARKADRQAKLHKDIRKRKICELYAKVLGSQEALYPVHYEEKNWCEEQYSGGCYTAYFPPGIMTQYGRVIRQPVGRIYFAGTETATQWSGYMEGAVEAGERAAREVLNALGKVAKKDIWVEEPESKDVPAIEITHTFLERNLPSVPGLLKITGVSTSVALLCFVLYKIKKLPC

Mus musculus [3] = test: MAO activities in the mouse brain after oral administration of compound towards PE (1.9 x 10e-5 M) substrate; type: functional
Mus musculus [4] = test: MAO activities in the mouse brain after intraperitoneal administration of compound towards PE (1.9 x 10e-5 M) substrate; type: functional; details: ip, read-out: ID50 (the source's name)
Mus musculus [5] = test: MAO activities in the mouse brain after intraperitoneal administration of compound towards 5-HT (5 x 10e-4 M) substrate; type: functional; details: ip, read-out: ID50 (the source's name)
Mus musculus [6] = test: MAO activities in the mouse brain after oral administration of compound towards 5-HT (5 x 10e-4 M) substrate; type: functional
Rattus norvegicus = test: MAO activity evaluated in dissected forebrain of rat after 2 hr of administration; type: functional
Mus musculus [7] = test: Compound was evaluated for MAO-B activity after 1 day of chronic peritoneal administration in mouse fore brain at dose of 0.05 mg/kg; type: functional
Mus musculus [8] = test: Compound was evaluated for MAO-A activity after 20 days of chronic peritoneal administration in mouse fore brain at dose of 0.05 mg/kg; type: functional
Mus musculus [9] = test: Compound was evaluated for MAO-A activity after 1 day of chronic peritoneal administration in mouse fore brain at dose of 0.2 mg/kg; type: functional
Mus musculus [10] = test: Compound was evaluated for MAO-B activity after 20 days of chronic peritoneal administration in mouse fore brain at dose of 0.05 mg/kg; type: functional
Mus musculus [11] = test: Compound was evaluated for MAO-A activity after 9 day of chronic peritoneal administration in mouse fore brain at dose of 0.2 mg/kg; type: functional
Mus musculus [12] = test: Compound was evaluated for MAO-B activity after 1 day of chronic peritoneal administration in mouse fore brain at dose of 0.2 mg/kg; type: functional
Mus musculus [13] = test: Compound was evaluated for MAO-A activity after 9 days of chronic peritoneal administration in mouse fore brain at dose of 0.05 mg/kg; type: functional
Mus musculus [14] = test: Compound was evaluated for MAO-B activity after 9 days of chronic peritoneal administration in mouse fore brain at dose of 0.05 mg/kg; type: functional
Mus musculus [15] = test: Compound was evaluated for MAO-B activity after 20 day of chronic peritoneal administration in mouse fore brain at dose of 0.2 mg/kg; type: functional
Mus musculus [16] = test: Compound was evaluated for MAO-A activity after 20 day of chronic peritoneal administration in mouse fore brain at dose of 0.2 mg/kg; type: functional
Mus musculus [17] = test: Compound was evaluated for MAO-B activity after 9 day of chronic peritoneal administration in mouse fore brain at dose of 0.2 mg/kg; type: functional
Mus musculus [18] = test: Compound was evaluated for MAO-A activity after 1 day of chronic peritoneal administration in mouse fore brain at dose of 0.05 mg/kg; type: functional
Monoamine oxidase [19] = target: T3, Monoamine oxidase (Rattus norvegicus, UniProt P19643+P21396); type: protein assay
T3 sequence (P19643 whole entry): T1 sequence (P19643 whole entry)
T3 sequence (P21396 whole entry): T2 sequence (P21396 whole entry)

Mus musculus [20] = test: Compound was evaluated for MAO-B activity after 1 day of chronic peritoneal administration in mouse fore brain at dose of 0.25 mg/kg; type: functional
Mus musculus [21] = test: Compound was evaluated for MAO-A activity after 13 days of chronic peritoneal administration in mouse fore brain at dose of 0.25 mg/kg; type: functional
Mus musculus [22] = test: Compound was evaluated for MAO-B activity after 13 days of chronic peritoneal administration in mouse fore brain at dose of 0.25 mg/kg; type: functional
Mus musculus [23] = test: Compound was evaluated for MAO-A activity after 1 day of chronic peritoneal administration in mouse fore brain at dose of 0.25 mg/kg; type: functional
Monoamine oxidase [24] = target: T3, Monoamine oxidase; test: Compound was evaluated for the inhibition of deamination of dopamine (DA) by Monoamine oxidase at 5 x 10e-4 M; type: protein assay
Mus musculus [25] = test: Compound was evaluated for MAO-B activity after 21 days of chronic peritoneal administration in mouse fore brain at dose of 2 mg/kg; type: functional
Mus musculus [26] = test: Compound was evaluated for MAO-B activity after 10 days of chronic peritoneal administration in mouse fore brain at dose of 2 mg/kg; type: functional
Mus musculus [27] = test: Compound was evaluated for MAO-A activity after 10 days of chronic peritoneal administration in mouse fore brain at dose of 2 mg/kg; type: functional
Mus musculus [28] = test: Compound was evaluated for MAO-B activity after 1 days of chronic peritoneal administration in mouse fore brain at dose of 2 mg/kg; type: functional
Mus musculus [29] = test: Compound was evaluated for MAO-A activity after 1 days of chronic peritoneal administration in mouse fore brain at dose of 2 mg/kg; type: functional
Mus musculus [30] = test: Compound was evaluated for MAO-A activity after 21 days of chronic peritoneal administration in mouse fore brain at dose of 2 mg/kg; type: functional

| Structure (SMILES) | IC50 [1] | IC50 [2] | Relative activity (Mus musculus [3]) | ED50 (Mus musculus [4]) | ED50 (Mus musculus [5]) | Relative activity (Mus musculus [6]) | ED50 (Rattus norvegicus) | other results |
| --- | --- | --- | --- | --- | --- | --- | --- | --- |
| C#CCN(C)CCCCC(=O)OCC.O=C(O)C(=O)O | Not Active | Not Active |  |  |  |  |  |  |
| C#CCN(C)CCC(=O)O.O=C(O)C(=O)O | Not Active | Not Active |  |  |  |  |  |  |
| C#CCN(C)CCCCC.O=C(O)C(=O)O | 0.37 µM | 120 µM | 72% | 6.8 µmol/kg | > 218 µmol/kg | 97% |  |  |
| C#CCN(C)CCCC.Cl | 1.4 µM | 98 µM | 67% | 11.2 µmol/kg | 478 µmol/kg | 98% | 141 µmol/kg |  |
| C#CCN(C)C(C)CCCC.Cl (centres undefined) | 0.082 µM | 90 µM |  | 1.2 µmol/kg | 262 µmol/kg |  | 5.1 µmol/kg | Relative activity (Mus musculus [7]): 55%; Relative activity (Mus musculus [8]): 76%; Relative activity (Mus musculus [9]): 103%; Relative activity (Mus musculus [10]): 37%; Relative activity (Mus musculus [11]): 103%; Relative activity (Mus musculus [12]): 36%; Relative activity (Mus musculus [13]): 95%; Relative activity (Mus musculus [14]): 41%; Relative activity (Mus musculus [15]): 27%; Relative activity (Mus musculus [16]): 81%; Relative activity (Mus musculus [17]): 35%; Relative activity (Mus musculus [18]): 104% |
| C#CCN(C)C(C)CCCCC.Cl (centres undefined) | 0.21 µM | 19 µM | 39% | 2.6 µmol/kg | 127 µmol/kg | 99% |  | IC50 (Monoamine oxidase [19]): 0.32 µM |
| C#CCN(C)CCCCCCO.Cl | 120 µM | Not Active |  |  |  |  |  |  |
| C#CCN(C)C(C)CCCCCCCCCC.Cl (centres undefined) | 0.039 µM | 1.9 µM | 64% | 15.5 µmol/kg | 223 µmol/kg | 107% |  | IC50 (Monoamine oxidase [19]): 0.28 µM |
| C#CCN(C)C(C)CCCCCCCC.Cl (centres undefined) | 0.18 µM | 3.9 µM | 104% | 15 µmol/kg | 144 µmol/kg | 97% | 171 µmol/kg | Relative activity (Mus musculus [20]): 94%; Relative activity (Mus musculus [21]): 79%; IC50 (Monoamine oxidase [19]): 0.21 µM; Relative activity (Mus musculus [22]): 70%; Relative activity (Mus musculus [23]): 85% |
| C#CCN(C)C(C)CCCCO.Cl (centres undefined) | 130 µM | Not Active |  |  |  |  |  |  |
| C#CCNC.Cl | Not Active | Not Active |  |  |  |  |  |  |
| C#CCN(C)C(CC)CC | 0.18 µM | 2.4 µM |  | 2.7 µmol/kg | 52.9 µmol/kg |  |  |  |
| C#CCN(C)C(C)C.Cl | 19 µM | Not Active |  |  |  |  |  | IC50 (Monoamine oxidase [24]): 28 µM |
| C#CCN(C)C(C)CCC(=O)OCC.Cl (centres undefined) | Not Active | Not Active |  |  |  |  |  |  |
| C#CCN(C)CCCCCCC.Cl |  | 38 µM | 118% | 75.6 µmol/kg | > 491 µmol/kg | 123% |  |  |
| C#CCN(C)C(C)CCC.Cl.O=C(O)C(=O)O (centres undefined) | 0.18 µM | 12 µM | 31% | 1.7 µmol/kg | 114 µmol/kg | 89% | 5.2 µmol/kg | Relative activity (Mus musculus [25]): 18%; Relative activity (Mus musculus [20]): 94%; Relative activity (Mus musculus [26]): 19%; Relative activity (Mus musculus [27]): 49%; Relative activity (Mus musculus [28]): 40%; Relative activity (Mus musculus [21]): 89%; IC50 (Monoamine oxidase [19]): 5.6 µM; Relative activity (Mus musculus [22]): 35%; Relative activity (Mus musculus [29]): 91%; Relative activity (Mus musculus [23]): 102%; Relative activity (Mus musculus [30]): 31% |
| C#CCN(C)C(C)CC (centres undefined) |  |  |  | 4.2 µmol/kg | 69.7 µmol/kg |  | 31 µmol/kg |  |
| C#CCN(C)[C@H](C)Cc1ccccc1 [SELEGILINE] |  |  |  | 2.3 µmol/kg | 143 µmol/kg |  | 26.3 µmol/kg |  |
